The results in this text go back to PubChem BioAssay AID1996.

Converted amounts (≈) assume the structure as drawn.

For this data set the following is noted: buffer; pH 7.4; 200.0 µM.
Consider `O=C(Nc1ccccc1)C(=O)c1c[nH]c2ccccc12`, for which the solubility (kinetic) is 0.8 µg/mL (≈ 3.03 µM).

Regarding `CCC1CCC/C1=N\NC(=O)c1ccoc1C` (stereo not drawn), the kinetic solubility was > 35.1 µg/mL.

Turning to `CCC(Cc1ccccc1)NC(=O)/C=C/c1ccco1` (stereo not drawn), the kinetic solubility was determined as 23.7 µg/mL (≈ 88 µM).

For `COc1cc(OC)cc(C(=O)NCC(=O)N2CCN(S(=O)(=O)c3ccccc3F)CC2)c1`, the solubility (kinetic) was 52.1 µg/mL (≈ 112 µM).

Turning to `COC(=O)c1sc(NC(=O)c2cc(C)on2)nc1C`, the solubility (kinetic) is 35.5 µg/mL (≈ 126 µM).

With `Clc1cc(/C=N\NC2=NCCN2)cc(Cl)n1`, the solubility (kinetic) is > 38.7 µg/mL.

As for `COc1ccc(Nc2nc3ccccc3c(=O)[nH]2)cc1`, the solubility (kinetic) was 24.4 µg/mL (≈ 91.3 µM).

Take `O=C(NCc1ccc2c(c1)OCO2)C1CCC(=O)N1C1CCCC1` (stereo not drawn): the solubility (kinetic) is > 49.6 µg/mL.

The compound `CCOC(=O)C1CCN(C(=O)COC(=O)c2c(C)c(CC)nc3ccccc23)CC1` came in with a solubility (kinetic) of 20.3 µg/mL (≈ 49.2 µM).

Take `O=C(CN1C(=O)C(=O)N(CCC2=CCCCC2)C1=O)Nc1ccc(F)cc1F`: the kinetic solubility worked out at 6.5 µg/mL (≈ 16.6 µM).

`O=C(COC(=O)c1ccccc1F)Nc1ccc(S(=O)(=O)N2CCOCC2)cc1` yielded a kinetic solubility of 38 µg/mL (≈ 90 µM).

Consider `Cc1noc(C)c1C(=O)NCCc1ccc(S(N)(=O)=O)cc1`, for which the solubility (kinetic) was > 48.5 µg/mL.

As for `Cc1ccc(NC(=O)Cc2ncon2)cc1Cl`, the kinetic solubility is > 37.8 µg/mL.

For `CCOc1ccccc1NC(=S)NC(=O)c1ccco1`, the solubility (kinetic) came to 1.9 µg/mL (≈ 6.54 µM).

With `O=C(/C=C\c1ccco1)NC(=S)Nc1ccccc1O`, the solubility (kinetic) amounted to 42.6 µg/mL (≈ 148 µM).

On to `COc1cc(CC(=O)OCC(=O)c2ccc[nH]2)cc(OC)c1OC`, for which the solubility (kinetic) is > 50 µg/mL.

The compound `O=S(=O)(c1ccc(NCc2ccc(F)cc2)nc1)N1CCCC1` had a kinetic solubility of 3 µg/mL (≈ 8.94 µM).

Turning to `O=C(CNC(=O)c1ccco1)Nc1ccc2c(c1)OCCO2`, the kinetic solubility was > 45.3 µg/mL.

Consider `O=Cc1c(F)cccc1N1CCCC1`, for which the kinetic solubility turned out to be 15.3 µg/mL (≈ 79.2 µM).

As for `CC1CCC(NC(=O)CCN2C(=O)C3CC=CCC3C2=O)CC1` (stereo not drawn), the kinetic solubility is > 47.8 µg/mL.

For the compound `COc1ccc(CNC(=O)c2cccnc2SC)cc1OC`, the kinetic solubility is > 47.8 µg/mL.

Take `O=C(COC(=O)C1COc2ccccc2O1)NC1CCCCC1` (stereo not drawn): the kinetic solubility was > 47.9 µg/mL.

Compound `COc1ccc(/C=C/C(=O)NCc2ccc3c(c2)OCO3)cc1OC` showed a solubility (kinetic) of 2.8 µg/mL (≈ 8.2 µM).

For `CCn1cc(C(=O)NCc2ccccc2)c2ccccc21`, the solubility (kinetic) amounted to 8 µg/mL (≈ 28.7 µM).

`O=C1CN(S(=O)(=O)c2ccccc2)CCN1`: the kinetic solubility was > 36 µg/mL.

With `CNc1snc(C)c1C(=O)OCC(=O)c1ccc(Cl)cc1`, the kinetic solubility came to 2.6 µg/mL (≈ 8.01 µM).

`N#C/C(=C\c1cccnc1)C(=O)Nc1ccc(C(=O)O)cc1`: the kinetic solubility was > 44 µg/mL.

For the compound `Fc1ccc(NC(=S)Nc2nccs2)cc1`, the kinetic solubility was determined as 14.9 µg/mL (≈ 58.8 µM).

Regarding `COc1ccc(C(=O)N2CCn3c2nc2ccccc23)cc1`, the kinetic solubility amounted to 6.7 µg/mL (≈ 22.8 µM).

Consider `Cc1ccccc1C(=O)N1CCC(C(=O)Nc2nccs2)CC1`, for which the solubility (kinetic) was determined as 46.7 µg/mL (≈ 142 µM).

On to `CC1=[N+]([O-])C(C)(C)N(O)C1(C)C`, for which the kinetic solubility is > 25.8 µg/mL.

For the compound `Cc1ccc(NC(=O)C2CCCCC2C(=O)O)cc1Cl` (stereo not drawn), the solubility (kinetic) was > 44.4 µg/mL.

On to `COc1ccc(C(=O)O)cc1S(=O)(=O)N1CCN(Cc2ccc3c(c2)OCO3)CC1`, for which the kinetic solubility was > 65.2 µg/mL.

For `CC(C)(C)NC(=O)CN(Cc1ccccc1)S(=O)(=O)c1ccccc1`, the solubility (kinetic) stood at 38.7 µg/mL (≈ 107 µM).

In turn, `O=C(CCNc1ccc(Br)cc1)c1cccc([N+](=O)[O-])c1` registered a kinetic solubility of 4.6 µg/mL (≈ 13.2 µM).

Turning to `Cc1cccc(CSc2ncnc3ccccc23)c1`, the solubility (kinetic) is 0.4 µg/mL (≈ 1.5 µM).

The compound `Cc1cnc(C(=O)Oc2ccc(-c3ccccc3)cc2)cn1` gave a solubility (kinetic) of 2.8 µg/mL (≈ 9.64 µM).

With `NCC1(CC(=O)O)CCCCC1`, the solubility (kinetic) was > 25.7 µg/mL.

In the case of `COC(=O)c1sccc1NC(=O)c1c(Cl)cccc1Cl`, the kinetic solubility came to 0.7 µg/mL (≈ 2.12 µM).

For the compound `O=C(CCc1ccc(S(=O)(=O)N2CCOCC2)cc1)Nc1ccccc1F`, the solubility (kinetic) was > 58.9 µg/mL.

On to `O=C(c1cc2cc(F)ccc2[nH]1)N1CCC2(CC1)OCCO2`, for which the kinetic solubility came out at 20.2 µg/mL (≈ 66.4 µM).

Turning to `COc1ccc(OCCC(=O)N2CCN(C)CC2)cc1.Cl`, the kinetic solubility was > 47.2 µg/mL.

As to `CCn1c(C)cc(C)c(C#N)c1=O`, the kinetic solubility is > 26.4 µg/mL.

In turn, `CCC(C)NC(=O)c1ccc(CSCc2ccc(Cl)cc2)o1` (stereo not drawn) displayed a solubility (kinetic) of 22.6 µg/mL (≈ 66.9 µM).

Compound `CC(C)c1nc(Cl)c(C#N)c2c1COC(C)(C)C2` gave a solubility (kinetic) of 6.6 µg/mL (≈ 24.9 µM).

`O=C(Nc1cccc(S(=O)(=O)NCc2ccco2)c1)c1ccc(Cl)cc1` returned a solubility (kinetic) of 3 µg/mL (≈ 7.68 µM).

`Cc1cccc(NS(=O)(=O)Cc2ccccc2)c1C`: the solubility (kinetic) was found to be 35.6 µg/mL (≈ 129 µM).

Regarding `CC(=O)c1ccc(OCCCC(=O)NC2CCCCC2C)cc1` (stereo not drawn), the solubility (kinetic) came out at 25.8 µg/mL (≈ 81.3 µM).

For `O=C1CNC(=S)N1CCCc1ccccc1`, the kinetic solubility was > 35.1 µg/mL.

For `CCN(CC)CCCNc1oc(/C=C/c2ccccc2)nc1C#N`, the solubility (kinetic) is > 48.7 µg/mL.

`CCOC(=O)C1(Cc2ccccc2C)CCCN(C(=O)CCC(=O)OC)C1` (stereo not drawn): the kinetic solubility was 53 µg/mL (≈ 141 µM).

Consider `O=C(COc1ccc(Br)cc1)N1CCc2ccccc21`, for which the kinetic solubility is < 0.7 µg/mL.

`NC(=O)c1cccnc1`: the kinetic solubility stood at 2.8 µg/mL (≈ 22.9 µM).
